Laboratory results from ChEMBL document CHEMBL1799994, “Synthesis and docking studies on styryl chromones exhibiting cytotoxicity in human breast cancer cell line” (Bioorg Med Chem Lett, 2010).

Experiments:
[1] = tested on: MCF7; assay: Cytotoxicity against human MCF7 cells expressing estrogen receptor after 24 hrs by MTT assay; format: functional, cell-based
[2] = tested on: MCF7; assay: Antiproliferative activity against human MCF7 cells expressing estrogen receptor after 24 hrs by MTT assay; format: functional, cell-based

Q: How did the Activity [1] turn out when `CC(=O)OC1=C(/C=C/c2ccccc2)Oc2ccccc2C1=C(C#N)C#N` was run?
A: Dose-dependent effect

Q: And the Activity [2]?
A: Dose-dependent effect
